Data taken from patent US5334595A, “Pyrazoloquinolones as anticancer agents” (priority 1992, dated 1994).
Read-outs that look alike come from different tables or passages of the source.

Columns and labels:
human topoisomerase II = target: T1, human topoisomerase II (Homo sapiens, UniProt P11388); experiment: Mammalian topoisomerase II inhibition assay (topo II covalently attached to DNA, relative to mAMSA); type: biochemical; details: read-out: topo II inh. EC50
T1 construct: Topo II was purified from late log phase suspension cultures of HeLa WIS; endogenous in cells; host or cells: HeLa WIS
From the text: The inhibition of human topoisomerase II (hereafter topo II) was quantitated by a procedure adapted from that described by Trask et al., EMBO J., 3, 671-676 (1984). The assay quantitates the amount of topo II covalently attached to DNA at equilibrium during a topo II reaction. This assay determines the potential of a compound to stabilize this complex, which potential is closely related to the cytotoxicity of the compound.
Topo II was purified from late log phase suspension cultures of HeLa WIS by an adaptation of the method described by Per et al., Mol. Pharmacol., 32, 17-25 (1987).
Assays (in duplicate) were assembled at 4° C. Assay mix (25 μl) was distributed in Beckman (No. 265270) 1.5 mL microtiter tubes followed by the addition of 5 μl test compound to yield the final concentrations of assay components:
The assay mix including the test compound was incubated for 20 minutes at 37° C. The reaction was terminated at 37° C. by the addition of 3 μl 10% SDS followed by the addition of 266 μl 10 mM Tris-Cl pH 7.5, 20 μg/ml BSA, 20 μg/ml calf thymus DNA, 1% SDS.
A SDS/protein precipitate was formed by the addition of 28 μl 2.5M KCl followed by chilling on ice for a minimum of 10 minutes. The precipitate was collected and washed with a Brandell cell harvester on a GFB glass fiber filter membrane as follows. The contents of the assay tube were drawn up into the harvester. The tube was then rinsed 7× with 10 mM Tris-Cl pH 7.5, 1 mM EDTA and 100 mM KCl. The precipitate was washed with 1 L of a solution of 10 mM Tris-Cl pH 7.5, 1 mMEDTA, 100 mM KCl followed by 1 L of 95% ethyl alcohol and finally 0.5 L 70% of ethyl alcohol (per 48 samples in each case). After drying, CPM was determined by liquid scintillation counting with 5 ml Biofluor (NEN Research Products) or Readisafe (Beckman Instruments Inc.) cocktail.
Preparation of test compound--A stock solution (6 mg/ml) of test compound was prepared either in 0.1N sodium hydroxide or 0.2N hydrogen chloride. This solution then was diluted 1/5 into water and serially thereafter in either 0.02N sodium hydroxide or 0.04N hydrogen chloride, respectively. The stock solution and serial dilution of the test compound was stored at -20° C. prior to testing.
Screening of test compound--As an initial screen, the test compound was tested at a final concentration of 2, 20 and 200 μg/ml. The compound was then retested at a range of concentrations (usually 2-3×steps) bridging their approximate EC50 's, as estimated by the prescreen.
Controls--A solvent control which indicates the base level of topo II-DNA complex formed in the absence of the test compound was included in each test. A control, in which topo II was omitted, was included for each test compound at the highest drug concentration tested.
Reference Agent--A dose response curve with mAMSA at 0.01, 0.08, 0.16, 0.32, 1.0 and 10 μg/ml was included in each test.
The maximal DNA-topo II complex formed is taken as that equal to that formed at the nearly saturating dose of mAMSA (10 μg/ml).

[1] = system: P388 murine leukemia cells; experiment: In vitro cytotoxicity, one-hour exposure, clonogenic survival of P388 cells; type: cell-based; details: Mus musculus, read-out: in vitro cytotoxicity IC50, 1 hr exp.; P388, 1 hr exposure
Description: (§1) In vitro cytotoxicity was assayed by determining cell survival following exposure of P388 murine leukemia cells to a range of test compound concentrations. Cytotoxicity was quantitated following either a one-hour exposure or continuous exposure of P388 cells to test compound.
(§2) A Manual of Basic Technique. […] Briefly, following drug exposure cells were plated in soft agar and incubated (37°, 5% CO2) for 7-10 days during which time viable cells form visible colonies. Cytotoxicity following continuous exposure of cells to test compound was assayed by quantitating total P388 cells on a Coultier Counter following a 48-hour co-incubation of test compound with cells. P388 cells were maintained in log phase throughout the duration of cytotoxicity assays.
(§3) The percentage of cells surviving relative to an untreated control was graphed as a function of increasing drug concentration.

[2] = system: P388 murine leukemia cells; experiment: In vitro cytotoxicity, continuous (48-hour) exposure of P388 cells; type: cell-based; details: Mus musculus; P388, continuous exposure (48-hour); read-out: in vitro cytotoxicity IC50, cont. exp.
Description: as §1, §2, §3

[3] = In vivo antitumor assay, Panc03(sc); set-up: species or system mice; details: mouse, in vivo, MTD
From the text: Mice: Inbred: C3H/He and NCR-nu; and Hybrids: B6D2F1 (C57BL/6 females×DBA/2 males, CD2F1 (Balb/c females×DBS/2 males) and B6C3fl (C57BL/6×C3H) were bred at Wayne State University from strains obtained from the Frederick Cancer Research Facility, Frederick, Maryland or purchased from commercial suppliers.
Tumors: Murine Tumor: P388 and an adriamycin-resistant (ADR) subline P388/ADR leukemia and the following transplantable solid tumors of mice were used for in vivo testing: B16 melanoma (B16), pancreatic ductal adenocarcinoma No. 03 (Pane 03), colon adenocarcinoma No. 38 (colo 38), lung carcinoma No. 12 (LC 12), mammary ductal adenocarcinoma No. 16/C (Mam16C) and an adriamycin-resistant subline Mam16C/ADR. Human tumor: A single human tumor, mammary carcinoma MX-1 was used for in vivo testing. All tumors are in the Developmental Therapeutics Program frozen tumor respository, maintained by the Biological Testing Branch, Frederick Maryland. Each has a detailed description, code identification number, and list of references at the National Tumor Repository. Murine tumors were maintained in the mouse strain of origin and were transplanted in the appropriate F1 hydrid (or the strain of origin) for therapy trials. Human mammary carcinoma MX-1 (MX1) was maintained as a subcutaneous implant in either athymic Swiss (Cr: NIH(S)-nu) or athymic random bred (NCR-nu) mice and transplanted in NCR-nu for therapy trials.
Chemotherapy: For pancreatic ductal adenocarcinoma No. 3, colon adenocarcinoma No. 38 (colo 38), lung carcinoma No. 12 LC 12) and both adriamycin-sensitive (RP) and-resistant (ADR) mammary ductal adenocarcinoma No. 16 (Mam16) tumors, bilateral tumor implants were used to help ensure a more uniform tumor burden per mouse (thus reducing the requirement for greater numbers of mice per group). The animals necessary to begin an experiment were pooled, implanted bilaterally s.c. on day zero with 30-60 mg tumor fragments using a 12-gauge trocar, and again pooled before randomization to the various treatment and control groups. Chemotherapy was started within three days after tumor implantation while the number of cells per mouse was relatively small (1×10^7 -1×10^8 cells).
Quantitative end points used to assess antitumor activity included % Increased Life Span (% ILS), Tumor Cell Kill (Log10 kill), and Tumor Growth Inhibition (T/C). Long Term Survivors (45 or 60 day) were excluded from calculations of %ILS and Tumor Cell Kill.
The log10 cell kill was calculated from the following formula: [formula] where T-C is the tumor difference in the median day of death between the treated (T) and the control (C) groups and Td is the tumor doubling time (in days), the latter estimated from the best fit straight line from a log-linear growth plot of the control-group tumors in exponential growth. The conversion of the T-C values to log10 cell kill is possible because the Td for tumors regrowing post-treatment approximated the Td values of the tumors in untreated control mice.
Tumors were measured with a caliper once or twice weekly (as needed) until either tumors exceeded 1600 mg or cure was assured. Tumor weights were estimated from two-dimensional measurements: Tumor Weight (mg)=(a×b^2) / 2, where a and b are the tumor length and width (ram) respectively. Measurements were carried out simultaneously in both treatment and control groups. When the control group tumors reached approximately 750-1500 mg in size (median of group), the median tumor weight of each group was determined (including zeros). The T/C value in percent is an indication of antitumor effectiveness. The % T/C was calculated from the following formula for solid murine tumor models: [formula] where T and C are median tumor weights of the treatment and control groups, respectively. A T/C equal to or less than 42% is considered significant antitumor activity. […]

[4] = conc. achieving 50% of maximal effect of mAMSA, topo II from HeLa cells

T1 sequence (P11388 whole entry): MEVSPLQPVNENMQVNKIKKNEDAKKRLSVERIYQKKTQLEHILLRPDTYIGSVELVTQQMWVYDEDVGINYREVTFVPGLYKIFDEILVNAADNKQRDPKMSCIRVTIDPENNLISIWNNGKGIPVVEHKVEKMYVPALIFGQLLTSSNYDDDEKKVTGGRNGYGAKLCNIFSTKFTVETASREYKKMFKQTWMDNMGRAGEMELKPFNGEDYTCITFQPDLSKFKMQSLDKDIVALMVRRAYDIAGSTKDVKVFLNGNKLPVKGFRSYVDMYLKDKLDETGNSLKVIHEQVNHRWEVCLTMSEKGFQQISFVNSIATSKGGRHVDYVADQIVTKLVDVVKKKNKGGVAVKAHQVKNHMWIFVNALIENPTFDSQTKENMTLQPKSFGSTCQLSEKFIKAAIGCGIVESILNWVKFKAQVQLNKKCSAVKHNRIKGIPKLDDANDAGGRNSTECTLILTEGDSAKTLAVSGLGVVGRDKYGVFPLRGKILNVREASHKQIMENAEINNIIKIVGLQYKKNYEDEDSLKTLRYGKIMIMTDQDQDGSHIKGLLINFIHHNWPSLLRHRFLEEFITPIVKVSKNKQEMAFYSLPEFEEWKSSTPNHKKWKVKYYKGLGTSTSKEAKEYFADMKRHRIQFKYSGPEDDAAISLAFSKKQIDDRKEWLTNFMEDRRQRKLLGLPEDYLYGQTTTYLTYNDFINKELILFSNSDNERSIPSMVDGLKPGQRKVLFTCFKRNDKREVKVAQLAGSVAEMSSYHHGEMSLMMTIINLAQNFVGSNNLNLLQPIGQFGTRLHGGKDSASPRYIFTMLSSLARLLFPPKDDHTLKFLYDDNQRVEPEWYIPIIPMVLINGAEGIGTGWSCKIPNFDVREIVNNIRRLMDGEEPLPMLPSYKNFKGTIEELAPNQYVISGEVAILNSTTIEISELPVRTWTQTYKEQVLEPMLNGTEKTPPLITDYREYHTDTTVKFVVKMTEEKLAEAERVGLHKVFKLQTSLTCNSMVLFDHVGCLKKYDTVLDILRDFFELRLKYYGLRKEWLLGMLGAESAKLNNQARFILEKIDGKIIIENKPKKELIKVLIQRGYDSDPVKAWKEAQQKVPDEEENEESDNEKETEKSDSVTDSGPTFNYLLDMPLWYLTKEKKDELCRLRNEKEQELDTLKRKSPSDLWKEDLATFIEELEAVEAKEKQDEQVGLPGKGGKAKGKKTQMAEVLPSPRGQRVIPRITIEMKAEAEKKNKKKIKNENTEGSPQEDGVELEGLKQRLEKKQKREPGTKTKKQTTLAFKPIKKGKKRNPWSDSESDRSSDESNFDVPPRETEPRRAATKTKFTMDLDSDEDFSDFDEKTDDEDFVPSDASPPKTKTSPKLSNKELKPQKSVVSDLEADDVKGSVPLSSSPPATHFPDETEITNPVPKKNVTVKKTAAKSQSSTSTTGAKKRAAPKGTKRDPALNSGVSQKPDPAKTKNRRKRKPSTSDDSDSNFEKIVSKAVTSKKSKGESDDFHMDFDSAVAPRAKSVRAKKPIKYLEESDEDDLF

Structure (SMILES) | EC50 (human topoisomerase II; [4]) [µM] | EC50 (human topoisomerase II) [µM] | IC50 [1] [µM] | IC50 [2] [µM] | MTD ([3]; sc) [mg/kg] | MTD ([3]; iv) [mg/kg] | EC50 (human topoisomerase II; footnote c: bell-shaped dose response curve noted, 50% of maximal effect of mAMSA) [µM] | MTD [3] [mg/kg]
Cc1cc(-c2c(F)cc3c4n[nH]c(=O)c-4cn(C4CC4)c3c2F)cc(C)n1 [Example 6] | 11 |  | 7.9 | 3.6 | > 2500 |  |  | 
CCN(CC)CCCn1nc2c3cc(F)c(-c4cc(C)nc(C)c4)c(F)c3n(C3CC3)cc-2c1=O [Example 16] | 6 |  | 0.49 | 1.2 |  |  |  | 
Cc1cc(-c2c(F)cc3c4nn(CCN5CCCC5)c(=O)c-4cn(C4CC4)c3c2F)cc(C)n1 [Example 18] |  | 650 | 0.3 | 0.035 |  |  |  | 
Cc1cc(-c2c(F)cc3c4nn(CCN5CCOCC5)c(=O)c-4cn(C4CC4)c3c2F)cc(C)n1 [Example 20] | 48 |  | 2.8 | 0.41 |  |  |  | 
Cc1cc(-c2c(F)cc3c4nn(CCC5CCCN5C)c(=O)c-4cn(C4CC4)c3c2F)cc(C)n1 (centres unmarked) [Example 21] | 3.5 |  | 0.33 | 0.16 |  | 80 |  | 
Cc1cc(-c2c(F)cc3c4nn(-c5ccccc5)c(=O)c-4cn(C4CC4)c3c2F)cc(C)n1 [Example 22] | 2.7 |  |  | 0.84 | 635 |  |  | 
COc1ccc(-n2nc3c4cc(F)c(-c5cc(C)nc(C)c5)c(F)c4n(C4CC4)cc-3c2=O)cc1 [Example 23] |  |  |  | 5.2 | 1150 | 140 | 6.8 | 
Cc1cc(-c2c(F)cc3c4nn(C5CCCCC5)c(=O)c-4cn(C4CC4)c3c2F)cc(C)n1 [Example 40] | 0.9 |  | 0.68 | 0.19 |  |  |  | 
Cc1cc(-c2c(F)cc3c4nn(C5CCN(C)CC5)c(=O)c-4cn(C4CC4)c3c2F)cc(C)n1 [Example 50] | 3.2 |  | 0.094 |  |  | 128 |  | 
Cc1cc(-c2c(F)cc3c4nn([C@H]5CC[C@H](N)CC5)c(=O)c-4cn(C4CC4)c3c2F)cc(C)n1 [Example 56b, 2-(trans-4-aminocyclohexyl)-5-cyclopropyl-6,8-difluoro-2,5 dihydro-7-(2,6-dimethyl-4-pyridinyl)-3H-pyrazolo[4,3-c]quinolin-3-one] | 4.2 |  | 1.5 |  |  |  |  | 550

Second part, led by results:

EC50 (human topoisomerase II; [4]) [µM] | EC50 (human topoisomerase II) [µM] | Structure (SMILES) | IC50 [1] [µM] | IC50 [2] [µM] | MTD ([3]; sc) [mg/kg] | MTD ([3]; iv) [mg/kg] | EC50 (human topoisomerase II; footnote c: bell-shaped dose response curve noted, 50% of maximal effect of mAMSA) [µM] | MTD [3] [mg/kg]
4 |  | Cc1cc(-c2c(F)cc3c4nn(C5CCCC5)c(=O)c-4cn(C4CC4)c3c2F)cc(C)n1 [Example 41] | 1.1 | 0.38 |  |  |  | 
2.9 |  | Cc1cc(-c2c(F)cc3c4nn(C5CCCCCC5)c(=O)c-4cn(C4CC4)c3c2F)cc(C)n1 [Example 42] | 4.2 | 1.5 |  |  |  | 
8.2 |  | Cc1cc(-c2c(F)cc3c4nn(CC5CCCCC5)c(=O)c-4cn(C4CC4)c3c2F)cc(C)n1 [Example 43] | 6.7 | 4.9 |  |  |  | 
1.7 |  | Cc1cc(-c2c(F)cc3c4nn(C5CCOCC5)c(=O)c-4cn(C4CC4)c3c2F)cc(C)n1 [Example 46] | 0.29 | 0.25 |  |  |  | 
5.6 |  | Cc1cc(-c2c(F)cc3c4nn(C5CCNCC5)c(=O)c-4cn(C4CC4)c3c2F)cc(C)n1 [Example 49] | 2.3 | 2.5 |  |  |  | 
15 |  | Cc1cc(-c2c(F)cc3c4nn(CCCCN(C)C)c(=O)c-4cn(C4CC4)c3c2F)cc(C)n1 [Example 54, 5-Cyclopropyl-6,8-difluoro-2,5-dihydro-2-[4-(dimethylamino)-butyl]-7-(2,6-dimethyl-4-pyridinyl) -3H-pyrazolo[4,3-c]quinolin-3-one] | 0.4 | 0.5 |  |  |  | 
11 |  | Cc1cc(-c2c(F)cc3c4nn(CCNC(C)(CO)CO)c(=O)c-4cn(C4CC4)c3c2F)cc(C)n1 [Example 55] | 11 | 25 |  |  |  | 
1.5 |  | Cc1cc(-c2c(F)cc3c4nn([C@H]5CC[C@H](NC=O)CC5)c(=O)c-4cn(C4CC4)c3c2F)cc(C)n1 [Example 58, 2-(trans-4-formamidocyclohexyl)-5-cyclopropyl-6,8-difluoro-2,5-dihydro-7-(2,6-dimethyl-4-pyridinyl)-3H-pyrazolo[4,3-c]quinolin-3-one] | 9.1 |  |  |  |  | 
